Read-outs that look alike come from different tables or passages of the source.
Columns and labels:
MC38 colorectal tumor = experiment: Efficacy in isotype MC38 colorectal tumor mice model; type: in vivo, C57BL/6 mice
Experimental: Female C57BL/6 mice (20-25 gram, 7-9 weeks old) were used in the experiment. In vivo antitumor activity of the compound of Example 1 administered alone or the compound of Example 1 administered in combination with anti-mouse PD-1 antibody was evaluated by detecting the growth of isotype MC38 colorectal tumor in inbred C57BL/6 mice. 500,000 (5×10^5) MC38 cells were implanted subcutaneously in the right abdomen of each mouse. When the tumor grew to 40-80 mm^3 (on Day 6), the mice were grouped randomly into the above four groups. In Group III and IV, the mice were administered the compound of Example 1 (0.5 mg/kg) once a day for 20 consecutive days. During the treatment experiment in Group II and IV, the anti-mouse PD-1 (CD279) antibody (BioXcell) (5 mg/kg) was intraperitoneally injected (i.p.) to the mice bearing MC38 tumor on Day 6, 9, 12 and 15, respectively. […]
The tumor volume was measured with a caliper in three dimensions, and then calculated according to the following formula: tumor volume (mm^3)=1×w×h×0.5236, wherein 1 represents the length of the tumor, w represents the width of the tumor, and h represents the height of the tumor, in millimeters. […]

[1] = Pharmacokinetics assay in mice; type: in vivo; conditions: female, mouse, po, C57 mice, intragastric, 2 mg/kg; for Vd/F: read-out: Apparent distribution volume Vz/F; for AUC: read-out: Area under curve AUC; for CL/F: read-out: Clearance CLz/F; for half-life: read-out: Half-life T½ (converted); for Cmax: read-out: Plasma concentration Cmax; for MRT: read-out: Residence time MRT
Experimental: Mice were used as test animals. […] The pharmacokinetic behavior of the compounds of the present invention was studied and evaluated in mice. A group of eighteen C57 mice (female, equally divided into two groups) were purchased from Shanghai Jiesijie Laboratory Animal Co., LTD, with Certificate No.: SCXK (Shanghai) 2013-0006. A certain amount of the test compound was weighed, and added with 5% by volume of DMSO, 5% by volume of tween 80 and 90% by volume of normal saline to prepare a 0.1 mg/mL colorless, clear and transparent solution. […] The samples were stored in heparinized tubes, and centrifuged for 10 minutes at 3500 rpm to separate the blood plasma. The plasma samples were stored at −20° C. The content of the test compound in the plasma of mice after intragastrical administration of the test compound at different concentrations was determined: 25 μL of mouse plasma at each time after administration was taken, added with 80 μL of the internal standard solution of camptothecin (100 ng/mL) and 200 μL of acetonitrile, vortex-mixed for 5 minutes, and centrifuged for 10 minutes (3600 rpm). 1 μL of the supernatant was taken from the plasma samples for LC/MS/MS analysis.

IL-17A = IL-17A enzyme-linked immune quantitative assay in cytostim-activated human PBMC; type: cell-based; conditions: 72 h, 3 days
Experimental: Frozen human peripheral blood mononuclear cells (PBMC) were rapidly resuscitated in pre-warmed lymphocyte culture medium, and centrifuged at 1000 rpm for 10 min. The cell culture supernatant was removed. The cells were gently suspended in TexMACS medium and counted. The T cell activation reagent cytostim (10 μl/ml) was added in proportion to the cell suspension. Then, the cells were seeded in a 96-well cell culture plate at a density of 1×10^5 peripheral blood mononuclear cells/well. The test compounds were diluted in gradient with TexMACS medium, and added respectively to the test wells, with 2-3 parallel wells per group. A negative control well containing only cells without cytostim was provided to obtain the background reading. The cell culture plate was placed in a incubator at 5% carbon dioxide, 37° C. to incubate for 3 days. The cell culture supernatant was collected 3 days after drug treatment, and centrifuged to remove the suspension. Then, IL-17A in the supernatant was quantified with IL-17A enzyme-linked immunosorbent kit. EC50 values of the test compounds were calculated with GraphPad Prism 6.0.

RORγ LBD = biological target: T1, RORγ LBD (Homo sapiens, UniProt P51449); experiment: LanthaScreen TR-FRET RORγ co-activation system, effect on in vitro activity of RORγ; type: biochemical
T1 construct: RORγ LBD (AB Vector); purchased AB Vector
T1 sequence (P51449 269-508 limits assumed): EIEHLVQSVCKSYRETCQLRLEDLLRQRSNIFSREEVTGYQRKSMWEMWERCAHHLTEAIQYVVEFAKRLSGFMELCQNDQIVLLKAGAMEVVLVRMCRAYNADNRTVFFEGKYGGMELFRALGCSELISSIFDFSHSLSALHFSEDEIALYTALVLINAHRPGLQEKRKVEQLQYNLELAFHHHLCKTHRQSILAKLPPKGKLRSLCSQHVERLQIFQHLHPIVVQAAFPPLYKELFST
Experimental: A complete buffer D (complete TR-FRET Coregulator) (Life Technologies) was formulated first, containing a final concentration of 5 mM DTT. The final concentration of DMSO was 2%. The test compound was serially diluted to 2× final concentration in the complete buffer D containing 2% of DMSO, and the maximum dose was 60 μm. The test compound was added to the test wells of a 384-well plate (PerkinElmer) in 10 μl/well. Two parallel control wells were set up for each test compound at the same concentration. 4×RORγ LBD (AB Vector) was formulated. RORγ LBD was diluted with the complete buffer D to a concentration of 1 ng/μL, and added to the test wells of the 384-well plate in 5 µl/well. The negative control well was 5 μL of complete buffer D without RORγ LBD. A mixed solution comprising 0.6 μM of fluorescein-D22 (4×) and 8 nM of terbium (Tb)-labeled anti-GST antibody (4×) (Life Technologies) was formulated with the complete buffer D, and 5 μL of the mixed solution was added to the 384-well plate. The total reaction system was 20 μL. The 384-well plate was gently shaken on a shaker, and incubated at room temperature in the dark for 2-4 hours.
Fluorescence readings were determined with Tecan Infinite M1000. The logarithmic curve of the ratio of the emission wavelength of 520 nm/495 nm to the concentration of the compound was plotted by GraphPad Prism 6.0 software. EC50 value of the test compound was calculated.

EC50 (IL-17A)	EC50 (RORγ LBD)	Emax (RORγ LBD)	Structure (SMILES)	Emax (IL-17A)	other results
	16 nM	89%	[2H]C([2H])(c1cc2cc(C(=O)N[C@@H](CO)c3ccc(S(=O)(=O)CC)cc3)ccc2n1C1CC1)n1nccc1C(F)(F)F [Example 2, 1-Cyclopropyl-2-[dideutero-[5-(trifluoromethyl)pyrazol-1-yl]methyl]-N-[(1R)-1-(4-ethylsulfonylphenyl)-2-hydroxy-ethyl]indole-5-carboxamide]		
103 nM	17 nM	98%	[2H]C([2H])(NC(=O)c1ccc2c(c1)cc(Cc1ccc(Cl)cc1C(F)(F)F)n2CCF)c1ccc(S(=O)(=O)CC)cc1 [Example 3, 2-[[4-Chloro-2-(trifluoromethyl)phenyl]methyl]-N-[dideutero-(4-ethylsulfonylphenyl)methyl]-1-(2-fluoroethyl)indole-5-carboxamide]	102%	
20 nM	5 nM	98%	[2H]C([2H])(NC(=O)c1ccc2c(c1)cc(Cc1ccccc1C(F)(F)F)n2C1CC1)c1ccc(S(=O)(=O)CC)cc1 [Example 4, 1-Cyclopropyl-N-[dideutero-(4-ethylsulfonylphenyl)methyl]-2-[[2-(trifluoromethyl)phenyl]methyl]indole-5-carboxamide]	79%	
32 nM	9 nM	73%	[2H]C([2H])(O)Cn1c(Cc2ccc(Cl)cc2C(F)(F)F)cc2cc(C(=O)N[C@@H](CO)c3ccc(S(=O)(=O)CC)cc3)ccc21 [Example 5, 2-[[4-Chloro-2-(trifluoromethyl)phenyl]methyl]-1-(2,2-dideutero-2-hydroxy-ethyl)-N-[(1R)-1-(4-ethylsulfonylphenyl)-2-hydroxy-ethyl]indole-5-carboxamide]	82%	
	34 nM	85%	[2H]C([2H])([2H])OC[C@H](NC(=O)c1ccc2c(c1)cc(Cc1ccc(Cl)cc1C(F)(F)F)n2CCF)c1ccc(S(=O)(=O)CC)cc1 [Example 8, 2-[[4-Chloro-2-(trifluoromethyl)phenyl]methyl]-N-[(1R)-1-(4-ethylsulfonylphenyl)-2-(trideuteromethoxy)ethyl]-1-(2-fluoroethyl)indole-5-carboxamide]		
22 nM	9 nM	77%	[2H]C([2H])(F)Cn1c(Cc2ccc(Cl)cc2C(F)(F)F)cc2cc(C(=O)N[C@@H](CO)c3ccc(S(=O)(=O)CC)cn3)ccc21 [Example 13, 2-[[4-Chloro-2-(trifluoromethyl)phenyl]methyl]-1-(2,2-dideutero-2-fluoro-ethyl)-N-[(1R)-1-(5-ethylsulfonyl-2-pyridinyl)-2-hydroxy-ethyl]indole-5-carboxamide]	88%	

Structure (SMILES)	EC50 (IL-17A)	EC50 (RORγ LBD)	Emax (RORγ LBD)	Emax (IL-17A)	other results
[2H]C([2H])(F)Cn1c(Cc2ccc(Cl)cc2C(F)(F)F)cc2cc(C(=O)N[C@@H](CO)c3ccc(S(=O)(=O)CC)cc3)ccc21 (single isomer, unassigned) [Example 1]	22 nM			88%	Tumor growth inhibition rate TGI (MC38 colorectal tumor; 0.5 mg/kg oral in combination with anti-mouse PD-1 monoclonal antibody 5 mg/kg i.p.): 65.5%; Tumor growth inhibition rate TGI (MC38 colorectal tumor; administered alone, 0.5 mg/kg oral, once a day for 20 days): 22.5%; Vd/F ([1]; plasma): 0.648 L/kg; AUC ([1]; plasma): 40400 ng·h/mL; CL/F ([1]; plasma): 0.82 mL/min/kg; half-life ([1]; plasma): 9.08 h; Cmax ([1]; plasma): 3710 ng/mL; MRT ([1]; plasma): 12 h
[2H]C([2H])([2H])C([2H])([2H])S(=O)(=O)c1ccc([C@H](CO)NC(=O)c2ccc3c(c2)cc(Cc2ccc(Cl)cc2C(F)(F)F)n3CCF)cc1 (single isomer, unassigned) [Example 6]	37 nM			100%	Vd/F ([1]; in vivo): 0.575 L/kg; AUC ([1]; in vivo): 31600 ng·h/mL; CL/F ([1]; in vivo): 1.06 mL/min/kg; half-life ([1]; in vivo): 6.29 h; Cmax ([1]; in vivo): 2730 ng/mL; MRT ([1]; in vivo): 9.13 h
[2H]C([2H])(C)n1c(Cc2ccc(Cl)cc2C(F)(F)F)cc2cc(C(=O)N[C@@H](CO)c3ccc(S(=O)(=O)CC)cc3)ccc21 [Example 11, 2-[[4-Chloro-2-(trifluoromethyl)phenyl]methyl]-1-(1,1-dideuteroethyl)-N-[(1R)-1-(4-ethylsulfonylphenyl)-2-hydroxyethyl]indole-5-carboxamide]		21 nM	84%		

Source: patent publication US20200277278A1, “Deuterium Atom-Substituted Indole Formamide Derivative, Preparation Method Therefor, and Medical Applications Thereof” (Jiangsu Hengrui Medicine Co., Ltd., priority 2017, published 2020)
